{
  "source": "paper PMC3157558",
  "about": "“Huprines as a new family of dual acting trypanocidal–antiplasmodial agents” (Bioorganic & Medicinal Chemistry, 2011)",
  "key": {"[1]": {"test_system": "rat skeletal myoblast L6 cells", "assay": "Cytotoxic activity against rat skeletal myoblast L6 cells (Alamar Blue)", "format": "cell-based", "conditions": "6 days incubation, mean of triplicate ± SEM", "description": "Cytotoxicity against mammalian cells was assessed using microtitre plates following a described procedure.[41] Briefly, L6 cells (a rat skeletal muscle line) were seeded at 1 × 10^4 ml^−1 in 200 μL of growth medium containing different compound concentrations. The plates were incubated for 6 days at 37 °C and 20 μL Alamar Blue (Biosource UK Ltd) was then added to each well. After a further 8 h incubation, the fluorescence was determined using a Gemini fluorescent plate reader (Molecular Devices)."}, "acetylcholinesterase": {"test_system": "acetylcholinesterase", "design": "method as in PMID 10464010, PMID 11101357", "conditions": "cited from earlier work"}, "[2]": {"test_system": "bloodstream form T. brucei", "assay": "microbe, parasite or virus in culture", "format": "cell-based, Trypanosoma brucei", "conditions": "for SI (selectivity index, ratio of cytotoxic to trypanocidal IC50 values): IC50 against L6 cells/IC50 against T. brucei", "method": "(§1) Trypanocidal activity was assessed by growing parasites for 48 h in the presence of various drug concentrations and determining the levels which inhibited growth by 50% (IC50) and 90% (IC90). In the case of untreated cultures, cell densities increased from 0.25 × 10^5 to 1 × 10^6 over this period. Cell densities at each drug concentration were determined using a hemocytometer and drug sensitivity was expressed as a percentage of growth of control cells."}, "in vitro": {"assay": "in vitro", "format": "cell-based, Trypanosoma brucei", "conditions": "427, rat", "method": "as §1"}, "[3]": {"test_system": "memory and learning activities", "conditions": "cited from earlier work"}, "[4]": {"test_system": "Alzheimer's disease related brain neuropathology", "design": "method as in PMID 20689242", "conditions": "transgenic mouse model; cited from earlier work"}, "[5]": {"conditions": "Trypanosoma brucei, bloodstream form T. brucei, pH 7.4, 48 h growth, concentration inhibiting growth by 90%, mean of triplicate ± SEM, read-out: T. brucei IC90"}, "[6]": {"conditions": "Trypanosoma brucei, bloodstream form T. brucei, pH 7.4, 48 h growth, mean of triplicate experiments ± SEM, read-out: T. brucei IC50"}, "[7]": {"conditions": "Trypanosoma brucei, 48 h, pH 7.4, read-out: T. brucei IC50"}, "[8]": {"conditions": "Trypanosoma brucei, 48 h, pH 7.4, read-out: T. brucei IC90"}, "[9]": {"conditions": "bloodstream form T. brucei, pH 7.4, 48 h growth, concentration inhibiting growth by 90%, mean of triplicate ± SEM, read-out: T. brucei IC90"}, "[10]": {"conditions": "bloodstream form T. brucei, pH 7.4, 48 h growth, mean of triplicate experiments ± SEM, read-out: T. brucei IC50"}},
  "note": "Counter-ions that a name gives are not always drawn. Like-named read-outs stand apart in the source and are kept apart here.",
  "data": [
    {"compound": "CC1=CC2Cc3nc4cc(Cl)ccc4c(N)c3C(C1)C2", "note": "(stereo not drawn) [huprine 3]", "values": [
      {"measurement": "IC50", "setting": "[1]; 144 h", "value": "7.8 ± 0.47", "unit": "µM"},
      {"measurement": "acetylcholinesterase inhibitory potency (rank in words)", "setting": "acetylcholinesterase", "value": "most potent acetylcholinesterase inhibitors"},
      {"measurement": "IC90", "setting": "[2]; [5]", "value": "2.94 ± 0.2", "unit": "µM"},
      {"measurement": "IC50", "setting": "[2]; [6]", "value": "610 ± 30", "unit": "nM"},
      {"measurement": "selectivity ratio", "setting": "in vitro", "value": 12.8}
    ]},
    {"compound": "CCC1=CC2Cc3nc4cc(Cl)ccc4c(N)c3[C@@H](C1)C2", "note": "[huprine 4]", "values": [
      {"measurement": "IC50", "setting": "[1]; 144 h", "value": "12.5 ± 0.4", "unit": "µM"},
      {"measurement": "adverse effects in behavioural studies", "setting": "[3]; behavioural studies in mice", "value": "did not induce adverse effects"},
      {"measurement": "effect on memory and learning activities", "setting": "[3]; middle aged mice", "value": "ameliorate memory and learning activities"},
      {"measurement": "acetylcholinesterase inhibitory potency (rank in words)", "setting": "acetylcholinesterase", "value": "most potent acetylcholinesterase inhibitors"},
      {"measurement": "IC90", "setting": "[2]; [5]", "value": "1.76 ± 0.2", "unit": "µM"},
      {"measurement": "IC50", "setting": "[2]; [6]", "value": "840 ± 60", "unit": "nM"},
      {"measurement": "effect on Alzheimer's disease related brain neuropathology", "setting": "[4]", "value": "ameliorate"}
    ]},
    {"compound": "CC(C)C1=CC2Cc3nc4ccccc4c(N)c3C(C1)C2", "note": "(stereo not drawn) [huprine 5]", "values": [
      {"measurement": "IC50", "setting": "[2]; [7]", "value": "2060 ± 440", "unit": "nM"},
      {"measurement": "IC90", "setting": "[2]; [8]", "value": "4.76 ± 0.82", "unit": "µM"}
    ]},
    {"compound": "C=CCC1=CC2Cc3nc4ccccc4c(N)c3C(C1)C2", "note": "(stereo not drawn) [huprine 6]", "values": [
      {"measurement": "IC90", "setting": "[2]; [5]", "value": "8.52 ± 0.19", "unit": "µM"},
      {"measurement": "IC50", "setting": "[2]; [6]", "value": "4080 ± 450", "unit": "nM"}
    ]},
    {"compound": "CC(C)C1=CC2Cc3nc4cc(Cl)ccc4c(N)c3C(C1)C2", "note": "(stereo not drawn) [huprine 8, 12-Amino-3-chloro-6,7,10,11-tetrahydro-9-isopropyl-7,11-methanocycloocta[b]quinoline hydrochloride]", "values": [
      {"measurement": "IC90", "setting": "[2]; [9]", "value": "4.34 ± 0.03", "unit": "µM"},
      {"measurement": "IC50", "setting": "[2]; [10]", "value": "2450 ± 370", "unit": "nM"}
    ]},
    {"compound": "C=CCC1=CC2Cc3nc4cc(Cl)ccc4c(N)c3C(C1)C2", "note": "(stereo not drawn) [huprine 9, 9-Allyl-12-amino-3-chloro-6,7,10,11-tetrahydro-7,11-methanocycloocta[b]quinoline hydrochloride]", "values": [
      {"measurement": "IC50", "setting": "[1]; 144 h", "value": "12.4 ± 0.4", "unit": "µM"},
      {"measurement": "IC90", "setting": "[2]; [5]", "value": "2.87 ± 0.18", "unit": "µM"},
      {"measurement": "IC50", "setting": "[2]; [6]", "value": "760 ± 70", "unit": "nM"},
      {"measurement": "selectivity ratio", "setting": "in vitro; IC50 against L6 cells/IC50 against T. brucei, read-out: SI (selectivity index, ratio of cytotoxic to trypanocidal IC50 values)", "value": 16.3}
    ]},
    {"compound": "CC(C)C1=CC2Cc3nc4cccc(F)c4c(N)c3C(C1)C2", "note": "(stereo not drawn) [huprine 10, 12-Amino-1-fluoro-6,7,10,11-tetrahydro-9-isopropyl-7,11-methanocycloocta[b]quinoline hydrochloride]", "values": [
      {"measurement": "IC90", "setting": "[2]; [9]", "value": "7.75 ± 0.23", "unit": "µM"},
      {"measurement": "IC50", "setting": "[2]; [10]", "value": "2600 ± 550", "unit": "nM"}
    ]},
    {"compound": "C=CCC1=CC2Cc3nc4cccc(F)c4c(N)c3C(C1)C2", "note": "(stereo not drawn) [huprine 11, 9-Allyl-12-amino-1-fluoro-6,7,10,11-tetrahydro-7,11-methanocycloocta[b]quinoline hydrochloride]", "values": [
      {"measurement": "IC50", "setting": "[2]; [7]", "value": "3620 ± 540", "unit": "nM"},
      {"measurement": "IC90", "setting": "[2]; [8]", "value": "8.73 ± 0.69", "unit": "µM"}
    ]},
    {"compound": "CCC1=CC2Cc3nc4ccccc4c(N)c3C(C1)C2", "note": "(stereo not drawn) [huprine 12]", "values": [
      {"measurement": "IC50", "setting": "[1]", "value": "15.6 ± 1.6", "unit": "µM"},
      {"measurement": "SI (selectivity index, ratio of cytotoxic to trypanocidal IC50 values)", "setting": "[2]", "value": 12.1},
      {"measurement": "IC90", "setting": "[2]; [9]", "value": "4.53 ± 0.16", "unit": "µM"},
      {"measurement": "IC50", "setting": "[2]; [10]", "value": "1290 ± 160", "unit": "nM"}
    ]},
    {"compound": "CC(C)(C)C1=CC2Cc3nc4ccccc4c(N)c3C(C1)C2", "note": "(stereo not drawn) [huprine 14]", "values": [
      {"measurement": "IC50", "setting": "[1]", "value": "11.6 ± 0.5", "unit": "µM"},
      {"measurement": "acetylcholinesterase inhibitory potency (rank in words)", "setting": "acetylcholinesterase", "value": "least potent acetylcholinesterase inhibitors"},
      {"measurement": "SI (selectivity index, ratio of cytotoxic to trypanocidal IC50 values)", "setting": "[2]", "value": 13.2},
      {"measurement": "IC90", "setting": "[2]; [9]", "value": "3.05 ± 0.03", "unit": "µM"},
      {"measurement": "IC50", "setting": "[2]; [10]", "value": "880 ± 260", "unit": "nM"}
    ]},
    {"compound": "CC1=CC2Cc3nc4cc(C)ccc4c(N)c3C(C1)C2", "note": "(stereo not drawn) [huprine 17]", "values": [
      {"measurement": "IC50", "setting": "[1]", "value": "20 ± 0.5", "unit": "µM"},
      {"measurement": "SI (selectivity index, ratio of cytotoxic to trypanocidal IC50 values)", "setting": "[2]", "value": 19.2},
      {"measurement": "IC90", "setting": "[2]; [9]", "value": "3.31 ± 0.59", "unit": "µM"},
      {"measurement": "IC50", "setting": "[2]; [10]", "value": "1040 ± 50", "unit": "nM"}
    ]},
    {"compound": "CCC1=CC2Cc3nc4cccc(Cl)c4c(N)c3C(C1)C2", "note": "(stereo not drawn) [huprine 18]", "values": [
      {"measurement": "IC50", "setting": "[1]", "value": "21.3 ± 1.3", "unit": "µM"},
      {"measurement": "SI (selectivity index, ratio of cytotoxic to trypanocidal IC50 values)", "setting": "[2]", "value": 15.7},
      {"measurement": "IC90", "setting": "[2]; [9]", "value": "3.11 ± 0.29", "unit": "µM"},
      {"measurement": "IC50", "setting": "[2]; [10]", "value": "1360 ± 190", "unit": "nM"}
    ]},
    {"compound": "CCC1=CC2Cc3nc4cccc(C)c4c(N)c3C(C1)C2", "note": "(stereo not drawn) [huprine 20]", "values": [
      {"measurement": "IC90", "setting": "[2]; [9]", "value": "8.86 ± 0.15", "unit": "µM"},
      {"measurement": "IC50", "setting": "[2]; [10]", "value": "5280 ± 1110", "unit": "nM"}
    ]}
  ]
}
